These results are taken from the METLIN SMRT retention time set (Domingo-Almenara et al. 2019).

This series can be described thus: gradient 5% acetonitrile 3 min, to 50% in 2 min, to 85% in 15 min, held 3 min, 100 µL/min. The following applies: column: Zorbax Extend-C18 2.1 x 50 mm; eluents: water / acetonitrile, 0.1% formic acid. Summed up:
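In both positive and negative ionization mode, a quadrupole time-of-flight mass spectrometer coupled to HPLC analyzed pure standards run in mixtures of ~100 molecules. The Zorbax Extend-C18 column (2.1 × 50 mm, 1.8 μm) was operated at 100 μL/min with water and acetonitrile, each containing 0.1% formic acid. The dead volume was 40 μL and the dwell volume 900 μL. Retention time came from adduct peaks that were computationally picked and individually inspected by hand.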
In the case of `Cc1cc(F)ccc1N1C(=O)CN(S(C)(=O)=O)CC1(C)C(=O)NCc1ccc(Cl)cc1` (stereo not drawn), the RP-LC retention time turned out to be 856 s.
For the compound `Cc1nn(C)c(C)c1S(=O)(=O)N1CCC2(CC1)C(=O)N(C(C)C)C2c1ccccc1` (stereo not drawn), the RP-LC retention time was found to be 837 s.
Next, `Cc1ccc(CNC(=O)c2cn(C)nc2S(=O)(=O)N2CCSCC2)cc1`: 902 s; `O=S(=O)(c1ccc2nc(N3CCN(c4ccccc4)CC3)ccc2c1)N1CCCC1`: 921 s.
The compound `Cc1cccc(N2CCN(C(=O)CCC(=O)N3CCCn4nc(-c5cccn5C)cc43)CC2)c1C` gave an RP-LC retention time of 968 s.
Regarding `CN(CCc1noc(COc2ccc(F)cc2)n1)C(=O)Nc1ccc(F)c(Cl)c1`, the RP-LC retention time was found to be 953 s.
In the case of `O=C(NCc1ccccn1)c1ccc2c(c1)nc1n2CCCCC1`, the RP-LC retention time was 548 s.
`Oc1c(C(Nc2cccc(Cl)c2)c2cccnc2)ccc2cccnc12` (stereo not drawn) came in with an RP-LC retention time of 692 s.
The compound `COC(=O)[C@@H]1Cc2c([nH]c3ccccc23)C(CCc2ccccc2)N1C(C)=O` (stereo partly drawn) returned an RP-LC retention time of 983 s.
`NC(=O)C1CCN(S(=O)(=O)c2ccc(N3C(=O)CCS3(=O)=O)cc2)CC1` showed an RP-LC retention time of 622 s.
In the case of `CC(C)(C)c1csc(-c2csc(S(=O)(=O)Nc3ccc(Br)cc3F)c2)n1`, the RP-LC retention time worked out at 1330 s.
The value for `COc1ccc(OC)c(NC(=O)Cn2c(C(F)(F)F)nc3cc4c(cc32)OCCO4)c1` was 881 s; that for `CCOC(=O)c1cnc(N2CCN(c3ccc(OC)cc3)CC2)c2ccccc12` was 1080 s; that for `COc1ccc(NC(=O)C2CCN(S(C)(=O)=O)c3cc(Cl)ccc3O2)cc1` (stereo not drawn) was 918 s.
In the case of `CCCOc1nccnc1NC1CCN(C(=O)c2ccnn2C)CC1`, the RP-LC retention time was found to be 706 s.
`COc1ccc(-c2ccnc3nc(C4CCC4)nn23)c(F)c1` registered an RP-LC retention time of 869 s.
Take `Cc1nnc(C2CCCCCN2S(=O)(=O)c2cccnc2)o1` (stereo not drawn): the RP-LC retention time stood at 691 s.
On to `COc1ccc(-n2c(=O)n(C)c(=O)c3cc(C(=O)Nc4ccc(C)cc4)cnc32)cc1`, for which the RP-LC retention time turned out to be 918 s.
For `CCc1cc(=O)n(CC(=O)NCc2ccc(F)cc2F)c(N2CCOCC2)n1`, the RP-LC retention time was determined as 720 s.
Compound `COc1ccc(-c2noc(CN3C(=O)COc4ccc(Cl)cc43)n2)cc1` showed an RP-LC retention time of 1050 s.
On to `COC(=O)c1ccc(NC(=O)C2CCN(S(=O)(=O)c3ccc4c(c3)sc(=O)n4C)CC2)cc1`, for which the RP-LC retention time is 854 s.
`Cc1ccc(-c2nc(NC(=O)CCCOc3ccccc3C)sc2C)cc1` yielded an RP-LC retention time of 1270 s.
In turn, `COc1cccc(-n2c(=O)c(C(=O)Nc3ccccc3Cl)c(O)c3cccnc32)c1` displayed an RP-LC retention time of 1290 s.
`COc1cccc(Cn2c(=O)c3sccc3n(Cc3nc(-c4ccccc4Cl)no3)c2=O)c1` came in with an RP-LC retention time of 1080 s.
Compound `Cc1nnc([C@@H]2CC(F)(F)CN2C(=O)COc2ccccc2)o1` returned an RP-LC retention time of 667 s.
In turn, `Cc1ccccc1Oc1ccc(S(=O)(=O)NCCC(=O)O)cc1` gave an RP-LC retention time of 759 s.
Next, `COc1ccc(C(=O)Nc2ccc3c(c2)Sc2ncccc2C(=O)N3C(C)C)cc1`: 860 s.
As to `CN(C)C(CNC(=O)C1(c2ccccc2)CCOCC1)c1cn(C)c2ccccc12` (stereo not drawn), the RP-LC retention time amounted to 588 s.
`CC1CCN(C(=O)C2CCN(S(=O)(=O)c3cc(C(=O)N4CCCCC4)n(C)c3)CC2)CC1` gave an RP-LC retention time of 803 s.
On to `CC(C)CC(=O)Nc1nc(-c2ccc3c(c2)N(C)C(=O)C(C)O3)cs1` (stereo not drawn), for which the RP-LC retention time was 921 s.
`O=C(c1ccc(CN2C(=O)CCn3nc(-c4ccccc4)cc32)cc1)N1CCN(c2ccccn2)CC1` displayed an RP-LC retention time of 638 s.
`O=C(CCCc1nc(-c2ccc(Cl)cc2)no1)Nc1nc(-c2ccccc2)cs1`: the RP-LC retention time worked out at 1170 s.
Compound `Cc1nc(C(=O)Nc2ccc(N3CCOCC3)cc2)c(C)n1C1CCN(C)CC1` displayed an RP-LC retention time of 555 s.
Consider `CCOc1ccccc1NC(=O)C1CCN(S(=O)(=O)c2ccc3[nH]c(=O)sc3c2)CC1`, for which the RP-LC retention time is 870 s.
For the compound `Cc1n[nH]c(C)c1Sc1ccccc1[N+](=O)[O-]`, the RP-LC retention time was determined as 739 s.
On to `COC(=O)CNC(=O)NC(Cc1ccc(F)cc1)Cc1ccc2c(c1)OCO2` (stereo not drawn), for which the RP-LC retention time turned out to be 834 s.
The compound `O=C(NC1CCCN(c2ccc(=O)[nH]n2)C1)C1(S(=O)(=O)c2ccc(Cl)cc2)CC1` (stereo not drawn) returned an RP-LC retention time of 712 s.
Consider `O=C(NC1CCCC1)N1CC(Oc2cccc(-c3nc(-c4ccccc4)no3)c2)C1`, for which the RP-LC retention time was determined as 1130 s.
The compound `Cc1ccc(-c2nnc(-c3cccc(S(=O)(=O)NC(C(=O)O)C(C)C)c3)o2)cc1` (stereo not drawn) displayed an RP-LC retention time of 874 s.
In turn, `CC(=O)c1cccc(NC(=O)c2nc3nc(C)cc(C(F)F)n3n2)c1` returned an RP-LC retention time of 734 s.
`CCOc1ccc(-c2noc(Cc3nc(-c4ccc5c(c4)OCO5)cs3)n2)cc1` showed an RP-LC retention time of 1200 s.
`O=C(C(=O)N1CCN(c2ccccc2Cl)CC1)c1c[nH]c2ccccc12` yielded an RP-LC retention time of 940 s.
Next, `Cc1cc(N2CCN(C(=O)c3ccc4c(c3)OCO4)CC2)nc2nnc(C)n12`: 595 s; `CCCN1C(=O)c2cc(S(=O)(=O)Nc3cccc(F)c3)ccc2Oc2cccnc21`: 1060 s; `CCOc1ccccc1NC(=O)CN1C(=O)C(O)(c2cccc(C)c2)c2ccccc21` (stereo not drawn): 640 s.
Next, `COc1cc(OC)cc(C(=O)Nc2ccc3c(c2)Sc2ncccc2C(=O)N3C(C)C)c1`: 916 s; `CC1(CNS(=O)(=O)c2ccc(F)c(Cl)c2)CCOCC1`: 861 s; `Cc1cc(N2CCN(C(=O)c3cccc(N(C)C)c3)CC2)nc2nnc(C)n12`: 557 s.
`CCCC(=O)NCCc1c2n(c3ccc(OC)cc13)CCCc1ccccc1-2` gave an RP-LC retention time of 1150 s.
Next, `Cc1nc(-c2ccnc(N3CCCC3)c2)no1`: 572 s.
For the compound `CCc1nnc(-c2cc(NS(C)(=O)=O)c(C)s2)o1`, the RP-LC retention time was determined as 747 s.
Next, `O=C(C1=CN(c2cccc(Br)c2)c2ccccc2S1(=O)=O)N1CCCC1`: 819 s; `Cc1cccc(CN2CCCN(CC(=O)NC(C)CCc3ccccc3)S2(=O)=O)c1` (stereo not drawn): 1080 s; `O=c1cc[nH]c2c(Cl)cccc12`: 676 s.
In turn, `COc1ccc(CN(Cc2ccccc2)Cc2cc(=O)n3cc(Cl)ccc3n2)cc1` had an RP-LC retention time of 721 s.
As for `COC(=O)CNC(=O)Nc1ccc2nc(-c3ccc(F)cc3)cc(OC)c2c1`, the RP-LC retention time is 624 s.
The compound `Cc1ccc(N2CC(c3noc(-c4ccccc4C)n3)CC2=O)cc1` (stereo not drawn) yielded an RP-LC retention time of 1090 s.
As to `COCCCNC(=O)C1CCCN(c2nccnc2Sc2ccccc2)C1` (stereo not drawn), the RP-LC retention time is 849 s.
The compound `COC(=O)c1ccc(NC(=O)Cn2c3cc(Cl)ccc3c(=O)n2C(C)(C)C)cc1` registered an RP-LC retention time of 1300 s.
Consider `Cn1c(=O)c2c(nc(/C=C/c3cccc(Cl)c3)n2C)n(C)c1=O`, for which the RP-LC retention time stood at 1040 s.
`Cc1c(Cl)cccc1NC(=O)Cn1c(=O)n(-c2ccc(F)cc2)c(=O)c2c1cc(C)n2C`: the RP-LC retention time came out at 880 s.
Next, `O=C(NC1CCCCC1)c1nnc(-c2ccc(S(=O)(=O)N3CCCC3)cc2)o1`: 952 s; `Cc1ccc(C(=O)N(C)Cc2cccnc2Oc2ccccc2)cn1`: 861 s.
The value for `CCOC(=O)CNC(=O)Cn1cnc2c(oc3ccccc32)c1=O` was 624 s.
`O=C(c1ccc(N2C[C@H]3C[C@H](C2)[C@H]2CCCC(=O)N2C3)nc1)N1CCC2(CC1)OCCO2` came in with an RP-LC retention time of 584 s.
`CCn1c(=O)c(N2CCCC(C(=O)N3CCN(c4ccc(OC)cc4)CC3)C2)nc2ccccc21` (stereo not drawn) displayed an RP-LC retention time of 987 s.
As to `COc1ccc(NC(=O)N2CCCC2c2nc(-c3ccccc3OC)no2)c(OC)c1` (stereo not drawn), the RP-LC retention time came out at 871 s.
`O=C(NCc1cscn1)C1CCN(S(=O)(=O)c2cccs2)CC1`: the RP-LC retention time is 652 s.
`CN(C)S(=O)(=O)c1ccc(-c2nnc(C(=O)NC3CCN(Cc4ccccc4)CC3)o2)cc1` gave an RP-LC retention time of 754 s.
In turn, `O=C(Nc1nc(-c2ccccc2)c(-c2ccccc2)s1)C1=COCCO1` displayed an RP-LC retention time of 1060 s.
As to `CCCN(CC1CCOC1)C(=O)Nc1ccc2c(c1)OCCO2` (stereo not drawn), the RP-LC retention time was 732 s.
Turning to `O=C(c1cscn1)N1CCc2nn(CC3CC3)c(=O)n2CC1`, the RP-LC retention time stood at 610 s.
`CCCS(=O)(=O)Nc1ccc(F)c(C(=O)c2c[nH]c3ncc(-c4ccc(Cl)cc4)cc23)c1F`: the RP-LC retention time worked out at 1130 s.
Next, `Cc1ccc(CN2C(=O)CN(S(C)(=O)=O)CC2(C)C(=O)NC2CCCCCCC2)cc1` (stereo not drawn): 930 s; `CN(C)CCn1c2c(c(SCC(=O)Nc3ccc(Br)cc3)nc1=O)CCC2`: 655 s; `Cc1ccc2c(c1)C(=O)NC1(CCN(C(=O)Cc3cccc(F)c3)CC1)N2C`: 787 s.
As for `CCc1cc(=O)n(CC(=O)Nc2ccc(F)cc2)c(N)n1`, the RP-LC retention time came out at 596 s.
In turn, `Cc1cc(OCC(=O)Nc2ccccc2C(F)(F)F)nc(N2CCCC(C)C2)n1` (stereo not drawn) showed an RP-LC retention time of 734 s.
